From patent publication US9862723B2, “Stable polymorph of the salt of (2R)-4-oxo-4-[3-(trifluoromethyl)-5,6-dihydro[1,2,4]triazolo[4,3-α]pyrazin-7(8H)-yl]-1-(2,4,5-trifluorophenyl)butan-2-anime with L-tartaric acid” (ZENTIVA k.s, priority 2013, dated 2018)

Experiment: Relative stability of the crystalline forms of sitagliptin L-tartrate (polymorph transformation on contamination/seeding with Form Z1)
Type: physicochemical
Conditions: for stability of the crystalline form (polymorph) relative to the other form: comparison of WO 2005/072530 crystalline form with Form Z1 of sitagliptin L-tartrate, further experiments
Text: When studying the properties of salts of (2R)-4-oxo-4-[3-(trifluoromethyl)-5,6-dihydro[1,2,4]triazolo[4,3-α]pyrazin-7(8H)-yl]-1-(2,4,5-trifluorophenyl)butan-2-amine (sitagliptin), a quite new polymorph (Form Z1) of the salt of (2R)-4-oxo-4-[3-(trifluoromethyl)-5,6-dihydro[1,2,4]triazolo[4,3-α]pyrazin-7(8H)-yl]-1-(2,4,5-trifluorophenyl)butan-2-amine (sitagliptin) with L-tartaric acid has been successfully obtained, characterized by the following reflections in the X-ray powder pattern: 5.9; 9.8; 14.2; 19.5; 23.8 and 26.2±0.2° 2-theta.
Preparation of the Salt of (2R)-4-oxo-4-[3-(trifluoromethyl)-5,6-dihydro[1,2,4]triazolo[4,3-α]pyrazin-7(8H)-yl]-1-(2,4,5-trifluorophenyl)butan-2-amine with L-tartaric acid (Mixture of Forms) The salt of (2R)-4-oxo-4-[3-(trifluoromethyl)-5,6-dihydro[1,2,4]triazolo[4,3-α]pyrazin-7(8H)-yl]-1-(2,4,5-trifluorophenyl)butan-2-amine (sitagliptin) with L-tartaric acid, prepared in accordance with Example 1 (according to WO 2005/072530) (2 g) was suspended in propan-2-ol (50 ml) and the suspension was heated up to 50° C. under constant agitation. The polymorph Z1 (0.1 g) prepared in accordance with Example 2 was added to the white suspension. The mixture was agitated at the same temperature for 20 minutes and after cooling to 20° C. the product was filtered off and washed with a small amount of propan-2-ol. The obtained product was dried in a vacuum drier at 40° C. 1.9 g of a mixture of forms was obtained, Form Z1 being enriched considerably.

Row | stability of the crystalline form (polymorph) relative to the other form | transformation of the original polymorph to Form Z1 (inconsiderable contamination by Form Z1, even under the conditions in which the original crystalline form is prepared) | Compound
1 | significantly less stable | very quick transformation | N[C@@H](CC(=O)N1CCn2c(nnc2C(F)(F)F)C1)Cc1cc(F)c(F)cc1F.O=C(O)C(O)C(O)C(=O)O [previously described crystalline form, Salt of (2R)-4-oxo-4-[3-(trifluoromethyl)-5,6-dihydro[1,2,4]triazolo[4,3-α]pyrazin-7(8H)-yl]-1-(2,4,5-trifluorophenyl)butan-2-amine with L-tartaric acid]
2 | more stable |  | N[C@@H](CC(=O)N1CCn2c(nnc2C(F)(F)F)C1)Cc1cc(F)c(F)cc1F.O=C(O)C(O)C(O)C(=O)O [Form Z1, salt of (2R)-4-oxo-4-[3-(trifluoromethyl)-5,6-dihydro[1,2,4]triazolo[4,3-α]pyrazin-7(8H)-yl]-1-(2,4,5-trifluorophenyl)butan-2-amine (sitagliptin) with L-tartaric acid]
